# Source: patent publication US11161850B2, “Fused pyrazine derivatives as A2A / A2B inhibitors” (Incyte Corporation, priority 2018, dated 2021)
# Where two headings read alike, the source gives them in different places.
# Key:
# Adenosine A2A = Adenosine A2A (Homo sapiens (Human), UniProt P29274); assay: A2A Tag-Lite HTRF assay; type: binding
# From the text: Example C. A2A Tag-Lite® HTRF Assay
# [1] = molecular target: human adenosine A2B receptor (Homo sapiens (Human), UniProt P29275); assay: Adenosine A2B Receptor Cyclic AMP GS Assay; type: cell-based; conditions: HEK-293 cells expressing human A2B, agonist NECA 12 nM
# Method: Example B. Adenosine A2B Receptor Cyclic AMP GS Assay
# Stably transfected HEK-293 cells expressing the human adenosine A2B receptor (Perkin Elmer) were maintained in MEM culture medium with 10% FBS and 100 μg/mL Geneticin (Life Technologies). 18 to 24 hours prior to assay, geneticin was removed from culture. The cisbio cAMP-GS Dynamic kit utilizing the FRET (Fluorescence Resonance Energy Transfer) technology was used to measure cAMP accumulation in the cells. Compounds of the present disclosure at an appropriate concentration were mixed with 10000 cells/well in white 96 well half area plates (Perkin Elmer) for 30 min at room temperature gently shaking. Agonist, NECA (R&D Technologies) at 12 nM was added to each well for 60 min at room temperature gently shaking. Detection reagents, d2-labeled cAMP (acceptor) and anti-cAMP cryptate (donor) were added to each well for 60 min at rt gently shaking. Plates were read on Pherastar (BMG Labtech), fluorescence ratio 665/620 was calculated and EC50 determination was performed by fitting the curve of percent of control versus the log of the compound concentration using GraphPad Prism.
# [2] = read-out: A2A_Ki, Tag-Lite Adenosine A2A labeled cells, fluorescent ligand 12.5 nM
# [3] = Tag-Lite Adenosine A2A labeled cells, fluorescent ligand 12.5 nM, read-out: A2A_Ki
# human adenosine A2B receptor, sequence (P29275 whole entry): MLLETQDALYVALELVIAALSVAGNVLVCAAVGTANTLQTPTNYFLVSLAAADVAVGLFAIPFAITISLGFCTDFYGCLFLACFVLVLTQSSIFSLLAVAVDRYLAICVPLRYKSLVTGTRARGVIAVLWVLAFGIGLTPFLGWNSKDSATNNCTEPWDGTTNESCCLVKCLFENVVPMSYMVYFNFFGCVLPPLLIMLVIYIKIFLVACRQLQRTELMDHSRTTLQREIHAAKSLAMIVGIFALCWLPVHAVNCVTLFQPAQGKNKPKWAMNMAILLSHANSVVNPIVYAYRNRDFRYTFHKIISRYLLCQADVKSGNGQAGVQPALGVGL
# Adenosine A2A, sequence (P29274 whole entry): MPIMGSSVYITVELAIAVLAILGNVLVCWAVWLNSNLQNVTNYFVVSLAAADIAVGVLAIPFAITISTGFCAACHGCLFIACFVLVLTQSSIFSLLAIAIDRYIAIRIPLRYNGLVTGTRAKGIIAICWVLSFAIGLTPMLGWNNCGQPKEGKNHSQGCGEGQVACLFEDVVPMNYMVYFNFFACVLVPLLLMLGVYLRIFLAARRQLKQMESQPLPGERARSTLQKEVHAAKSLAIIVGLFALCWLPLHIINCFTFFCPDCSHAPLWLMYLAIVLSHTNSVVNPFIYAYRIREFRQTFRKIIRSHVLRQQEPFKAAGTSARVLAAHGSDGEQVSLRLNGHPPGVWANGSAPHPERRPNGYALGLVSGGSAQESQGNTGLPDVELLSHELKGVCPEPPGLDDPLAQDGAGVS
SMILES,Ki (Adenosine A2A; [2]) [nM],EC50 ([1]; read-out: A2B_cAMP_EC50) [nM],EC50 ([1]; A2B_cAMP_EC50 (nM)) [nM],Ki (Adenosine A2A; [3]) [nM],Ki (Adenosine A2A) [nM]
"N#Cc1cccc(-c2nc(N)c3nc(C(O)c4ccccc4Cl)nn3c2-c2ccncn2)c1 (single isomer, unassigned) [Example 58, 3-(8-Amino-2-((2-chlorophenyl)(hydroxy)methyl)-5-(pyrimidin-4-yl)-[1,2,4]triazolo[1,5-a]pyrazin-6-yl)benzonitrile]",< 10,< 10,–,–,–
"CN(C)Cc1cccc(F)c1C(O)c1nc2c(N)nc(-c3cccc(C#N)c3)c(-c3ccncn3)n2n1 (single isomer, unassigned) [Example 101, 3-(8-amino-2-((2-((dimethylamino)methyl)-6-fluorophenyl)(hydroxy)methyl)-5-(pyrimidin-4-yl)-[1,2,4]triazolo[1,5-a]pyrazin-6-yl)benzonitrile]",< 10,–,< 10,–,–
"CS(=O)(=O)CCn1cc(-c2cccc(F)c2Cc2nc3c(N)nc(-c4cccc(C#N)c4F)cn3n2)cn1 [Example 112, 3-(8-amino-2-(2-fluoro-6-(1-(2-(methylsulfonyl)ethyl)-1H-pyrazol-4-yl)benzyl)-[1,2,4]triazolo[1,5-a]pyrazin-6-yl)-2-fluorobenzonitrile]",–,–,< 10,< 10,–
"Cn1cc(-c2ccccc2Cc2nc3c(N)nc(-c4cccc(C#N)c4)c(-c4ccncn4)n3n2)cn1 [Example 41, 3-(8-Amino-2-(2-(1-methyl-1H-pyrazol-4-yl)benzyl)-5-(pyrimidin-4-yl)-[1,2,4]triazolo[1,5-a]pyrazin-6-yl)benzonitrile]",–,–,< 10,< 10,–
"N#Cc1cccc(-c2nc(N)c3cc(Cc4c[nH]c5cccnc45)nn3c2-c2ccncn2)c1 [Example 96, 3-(2-((1H-pyrrolo[3,2-b]pyridin-3-yl)methyl)-4-amino-7-(pyrimidin-4-yl)pyrazolo[1,5-a]pyrazin-6-yl)benzonitrile]",–,–,10 to 100,< 10,–
"N#Cc1cccc(-c2cn3nc(Cc4ccccc4F)c(C#N)c3c(N)n2)c1 [Example 21, 4-Amino-6-(3-cyanophenyl)-2-(2-fluorobenzyl)pyrazolo[1,5-a]pyrazine-3-carbonitrile]",–,–,100 to 1000,< 10,–
"N#Cc1cccc(-c2nc(N)c3cc(C(=O)N4CC(O)C4)nn3c2-c2ccncn2)c1 [Example 12, 3-(4-Amino-2-(3-hydroxyazetidine-1-carbonyl)-7-(pyrimidin-4-yl)pyrazolo[1,5-a]pyrazin-6-yl)benzonitrile]",–,–,10 to 100,< 10,–
"Cc1cc(-c2c(-c3cccc(C#N)c3F)nc(N)c3nc(C(O)c4c(F)cccc4F)nn23)cc(C)n1 (stereo not drawn) [Example 126, 3-(8-amino-2-((2,6-difluorophenyl)(hydroxy)methyl)-5-(2,6-dimethylpyridin-4-yl)-[1,2,4]triazolo[1,5-a]pyrazin-6-yl)-2-fluorobenzonitrile]",–,–,10 to 100,< 10,–
"CN1CCN(c2cc(-c3cc4c(N)nc(-c5cccc(C#N)c5)c(-c5ccncc5)n4n3)ccn2)CC1 [Example 26, 3-(4-Amino-2-(2-(4-methylpiperazin-1-yl)pyridin-4-yl)-7-(pyridin-4-yl)pyrazolo[1,5-a]pyrazin-6-yl)benzonitrile]",–,–,10 to 100,< 10,–
"N#CCCn1cc(-c2cccc(F)c2Cc2nc3c(N)nc(-c4cccc(C#N)c4F)cn3n2)cn1 [Example 117, 3-(8-amino-2-(2-(1-(2-cyanoethyl)-1H-pyrazol-4-yl)-6-fluorobenzyl)-[1,2,4]triazolo[1,5-a]pyrazin-6-yl)-2-fluorobenzonitrile]",–,–,< 10,< 10,–
"CCNC(=O)c1cc2c(N)nc(-c3cccc(C#N)c3)c(-c3ccncn3)n2n1 [Example 4, 4-Amino-6-(3-cyanophenyl)-N-ethyl-7-(pyrimidin-4-yl)pyrazolo[1,5-a]pyrazine-2-carboxamide]",–,–,10 to 100,< 10,–
"CN(C)Cc1cccc(F)c1C(O)c1nc2c(N)nc(-c3cccc(C#N)c3)c(-c3ccncn3)n2n1 (single isomer, unassigned) [Example 100, 3-(8-amino-2-((2-((dimethylamino)methyl)-6-fluorophenyl)(hydroxy)methyl)-5-(pyrimidin-4-yl)-[1,2,4]triazol[1,5-a]pyrazin-6-yl)benzonitrile]",–,–,100 to 1000,–,< 10
"N#Cc1cccc(-c2nc(N)c3cc(C(=O)N4CCCCC4)nn3c2-c2ccncn2)c1 [Example 9, 3-(4-Amino-2-(piperidine-1-carbonyl)-7-(pyrimidin-4-yl)pyrazolo[1,5-a]pyrazin-6-yl)benzonitrile]",–,–,10 to 100,< 10,–
"N#Cc1cccc(-c2nc(N)c3nc(C(O)c4c(F)cccc4CN4CCCC4)nn3c2-c2ccncn2)c1 (single isomer, unassigned) [Example 110, 3-(8-amino-2-((2-fluoro-6-(pyrrolidin-1-ylmethyl)phenyl)(hydroxy)methyl)-5-(pyrimidin-4-yl)-[1,2,4]triazolo[1,5-a]pyrazin-6-yl)benzonitrile]",–,–,100 to 1000,–,< 10
"Cc1n[nH]cc1-c1c(-c2cccc(C#N)c2)nc(N)c2nc(C(O)c3c(F)cccc3F)nn12 (single isomer, unassigned) [Example 103, 3-(8-amino-2-((2,6-difluorophenyl)(hydroxy)methyl)-5-(3-methyl-1H-pyrazol-4-yl)-[1,2,4]triazolo[1,5-a]pyrazin-6-yl)benzonitrile]",< 10,< 10,–,–,–
"N#Cc1cccc(-c2nc(N)c3cc(Cc4ccccn4)nn3c2-c2ccncn2)c1 [Example 17, 3-(4-Amino-2-(pyridin-2-ylmethyl)-7-(pyrimidin-4-yl)pyrazolo[1,5-a]pyrazin-6-yl)benzonitrile]",–,–,< 10,< 10,–
"N#Cc1cccc(-c2nc(N)c3nc(Cn4ncc5ccccc54)nn3c2-c2ccncn2)c1 [Example 48, 3-(2-((1H-Indazol-1-yl)methyl)-8-amino-5-(pyrimidin-4-yl)-[1,2,4]triazolo[1,5-a]pyrazin-6-yl)benzonitrile]",–,–,10 to 100,< 10,–
"Cc1ncoc1-c1c(-c2cccc(C#N)c2)nc(N)c2nc(C(NCCO)c3c(F)cccc3F)nn12 (stereo not drawn) [Example 79, 3-(8-amino-2-((2,6-difluorophenyl)((2-hydroxyethyl)amino)methyl)-5-(4-methyloxazol-5-yl)-[1,2,4]triazolo[1,5-a]pyrazin-6-yl)benzonitrile]",–,–,< 10,< 10,–
"N#Cc1cccc(-c2nc(N)c3cc(Cc4ccccc4F)nn3c2C2=CCN(C(N)=O)CC2)c1 [Example 19, 4-(4-Amino-6-(3-cyanophenyl)-2-(2-fluorobenzyl)pyrazolo[1,5-a]pyrazin-7-yl)-5,6-dihydropyridine-1(2H)-carboxamide]",–,–,10 to 100,< 10,–
"N#Cc1cccc(-c2nc(N)c3nc(Cc4cccc5ccnn45)nn3c2-c2ccncn2)c1 [Example 46, 3-(8-Amino-2-(pyrazolo[1,5-a]pyridin-7-ylmethyl)-5-(pyrimidin-4-yl)-[1,2,4]triazolo[1,5-a]pyrazin-6-yl)benzonitrile]",–,–,< 10,< 10,–
"Cn1nccc1-c1cccc(F)c1Cc1nc2c(N)nc(-c3cccc(C#N)c3)c(-c3ccncn3)n2n1 [Example 64, 3-(8-amino-2-(2-fluoro-6-(1-methyl-1H-pyrazol-5-yl)benzyl)-5-(pyrimidin-4-yl)-[1,2,4]triazolo[1,5-a]pyrazin-6-yl)benzonitrile]",–,–,< 10,< 10,–
